Measurements published in patent publication EP2338473A1, “Pharmaceutical dosage forms of tizanidine and administration routes thereof” (MDM S.p.A., priority 2009, dated 2011).
Structures can show the parent of a compound that is named as a salt.

How the values were obtained:
[1] = Preliminary pharmacokinetics of tizanidine solutions in rabbits (IN, IM, PO); type: in vivo; conditions: 3.00 mg/kg of tizanidine hydrochloride
Method: Preliminary pharmacokinetic data in rabbits at the dose of 3.00 mg/kg of tizanidine hydrochloride by intranasal (IN), intramuscular (IM), and oral route (PO) were performed to test the intranasal absorption without any enhancer.

[2] = cited from earlier work
[3] = animal data, local administration; cited from earlier work
[4] = Local tolerability of intranasal aqueous solution; type: in vivo; conditions: 45.00 mg/mL, pH 4.8
Method: The proposed formulations are calculated for a single puff of 50 µL/nostril.

[5] = pH of the tizanidine hydrochloride solutions; type: physicochemical; conditions: Tizanidine.HCl aqueous solutions, no excipients

SMILES	bioavailability ([1]; intranasal (IN) compared with intramuscular (IM))	intranasal absorption ([1]; intranasal (IN), without any enhancer)	absorption by oral route ([2]; extensive first-pass effect)	T1/2z ([2]; oral route) [h]	Tmax ([2]; oral route) [h]	activity compared with clonidine [3]	tolerability by the nasal mucosa (redness or pain) [4]	pH [5]
Clc1ccc2nsnc2c1NC1=NCCN1 [Tizanidine, 5-chloro-N-(4,5-dihydro-1H-imidazol-2-yl)-2,1,3-benzothia-diazol-4-amine]	close to that of intramuscular route (IM)	rapidly absorbed	well and rapidly absorbed	1 to 2	1 to 2	equivalent activity	–	–
Clc1ccc2nsnc2c1NC1=NCCN1 [Tizanidine.HCl]	–	–	–	–	–	–	tolerated by the nasal mucosa without any local side effect	4.8
